Reference: US20240247080A1, “GLP1/GIP/NPY2 RECEPTOR TRIPLE AGONISTS” (Boehringer Ingelheim International GmbH, priority 2022, published 2024)
Read-outs that look alike come from different tables or passages of the source. Starred links: 1 amine or outer side, 2 acyl side, 3 side chain; linkers in the order of their positions; H or OH if unused. Non-standard residues stand in square brackets, D forms with d. Groups on a side chain read outwards from the residue. *: point of attachment. C20 diacid = O=C(O)CCCCCCCCCCCCCCCCCCC(=O)*; C18 diacid = O=C(O)CCCCCCCCCCCCCCCCC(=O)*; γGlu = O=C(O)[C@H](CCC(=O)[*:2])N[*:1]; εLys = N[C@@H](CCCCN[*:1])C(=O)[*:2]; NMeR = CN[C@@H](CCCNC(=N)N)C(=O)O; Tle = CC(C)(C)[C@H](N)C(=O)O; AEEA = NCCOCCOCC(=O)O; Aib = CC(C)(N)C(=O)O; Ahx = NCCCCCC(=O)O

Legend:
[1] = biological target: T1, hGLP1R (Homo sapiens, UniProt P43220); test: hGLP1R CreLuc reporter gene assay in 0.5% and 100% plasma; format: cell-based; conditions: CreLuc reporter gene assay
T1 construct: expressed in transfected cells; host or cells: HEK-293 cells carrying a CRE-luciferase reporter gene
Excerpt: (§1) Example 1: hGLPR/hGIPR/hNPY2R CreLuc Assay in 0.5% and 100% Plasma
(§2) CHO and HEK-293 recombinant cell lines express a luciferase reporter gene under control of the cAMP responsive element (CRE). As a second recombinant protein the GLP-1 and NPY2 receptors were expressed in the reporter gene HEK cells, and the GIP receptor was expressed in the reporter gene CHO cells, respectively. Stimulation of these recombinant cells with an agonist leads to an increase of intracellular cAMP levels. In the presence of cAMP, the transcription factor CRE binding protein (CREB) binds to the CRE and to the CREB binding protein (CBP), which leads to transcription of the luciferase reporter gene. Peptides upon serial-dilution in 100% DMSO were transferred into 384-well assay plates with 5 μl pre-dispensed assay buffer (1×HBSS, 20 mM HEPES, pH7.4 supplemented with 0.5% human plasma) using acoustic dispensing on a Labcyte ECHO. Cryo-preserved transgenic reporter gene cells were thawed in assay buffer. 20 μl (10.000 cells/well) were added to the plate with the peptides and incubated for 4 hours at 37° C. in a humidified incubator. Following incubation, assay plates are equilibrated to room temperature, followed by addition of 25 μl of Bright-GIo™ Luciferase reagent, incubation at room temperature for 10 minutes and analysis of luminescence (Envision Reader). Concentration response evaluation of compounds was performed with 8 concentrations of peptides (covering four decades). EC50 values were calculated by non-linear regression using sigmoid concentration-response with variable slope. The same assays were run in the presence of 100% plasma with no additional buffer constituents.

[2] = biological target: T2, hGIPR (Homo sapiens, UniProt P48546); test: hGIPR CreLuc reporter gene assay in 0.5% and 100% plasma; format: cell-based; conditions: CreLuc reporter gene assay
T2 construct: expressed in transfected cells; host or cells: CHO cells carrying a CRE-luciferase reporter gene
T2 sequence (P48546 22-466): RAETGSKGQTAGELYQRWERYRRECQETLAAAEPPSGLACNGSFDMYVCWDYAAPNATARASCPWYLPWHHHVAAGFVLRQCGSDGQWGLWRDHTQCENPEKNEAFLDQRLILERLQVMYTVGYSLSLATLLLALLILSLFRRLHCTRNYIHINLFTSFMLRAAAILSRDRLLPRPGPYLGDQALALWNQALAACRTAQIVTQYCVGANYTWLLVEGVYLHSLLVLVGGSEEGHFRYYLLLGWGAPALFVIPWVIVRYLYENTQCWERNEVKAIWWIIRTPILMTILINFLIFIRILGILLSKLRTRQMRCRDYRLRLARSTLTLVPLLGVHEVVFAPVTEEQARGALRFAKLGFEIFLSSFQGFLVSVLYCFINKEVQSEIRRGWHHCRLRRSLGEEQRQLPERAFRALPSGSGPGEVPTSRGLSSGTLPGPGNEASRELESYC
Excerpt: as §1, §2

[3] = 0.5% human plasma, read-out: hGLP1R 0.5% hP
[4] = 100% human plasma, read-out: hGLP1R 100% hP
[5] = 0.5% human plasma, read-out: hGIPR 0.5% hP
[6] = 100% human plasma, read-out: hGIPR 100% hP

T1 sequence (P43220 24-463): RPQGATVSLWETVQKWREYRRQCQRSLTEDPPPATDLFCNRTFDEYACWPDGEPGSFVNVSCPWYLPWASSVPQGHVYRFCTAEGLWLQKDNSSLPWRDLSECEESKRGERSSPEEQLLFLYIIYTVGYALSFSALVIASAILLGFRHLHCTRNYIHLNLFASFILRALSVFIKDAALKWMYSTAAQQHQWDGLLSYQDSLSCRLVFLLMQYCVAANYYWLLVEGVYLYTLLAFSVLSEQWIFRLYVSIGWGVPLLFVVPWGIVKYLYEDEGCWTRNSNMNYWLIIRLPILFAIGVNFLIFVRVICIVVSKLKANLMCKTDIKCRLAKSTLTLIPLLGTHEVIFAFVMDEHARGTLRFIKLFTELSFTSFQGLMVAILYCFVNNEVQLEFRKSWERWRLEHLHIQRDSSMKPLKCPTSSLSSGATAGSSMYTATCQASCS

EC50 [1, 3] [nM]	EC50 [1, 4] [nM]	EC50 [2, 5] [nM]	EC50 [2, 6] [nM]	Substance
0.15	2.87	0.29		H-Y[Aib]EGTFTSDYSI[Aib]LEKQAQ[Aib]AFVEWLIK([εLys-γGlu-γGlu-γGlu-γGlu-γGlu-γGlu-C20 diacid])GGPSSGADLRHYLNWLTRQRY-NH2 [Compound 72, Y-Aib-E-G-T-F-T-S-D-Y-S-I-Aib-L-E-K-Q-A-Q-Aib-A-F-V-E-W-L-I-K(1,3)-GGPSSGADLRHYLNWLTRQRY-NH2.C20DA-gGlu-gGlu-gGlu-gGlu-gGlu-gGlu-eLys(1,2)]
0.05		0.06	0.55	H-Y[Aib]EGTFTSDYSI[Aib]LEKQAQ[Aib]AFVEWLIK([εLys-γGlu-γGlu-γGlu-γGlu-γGlu-γGlu-C20 diacid])GGPSSGAS[Aib]RHYYNWLTRQRY-NH2 [Compound 118, Y-Aib-E-G-T-F-T-S-D-Y-S-I-Aib-L-E-K-Q-A-Q-Aib-A-F-V-E-W-L-I-K(1,3)-G-G-P-S-S-G-A-S-Aib-R-H-Y-Y-N-W-L-T-R-Q-R-Y-NH2.C20DA-gGlu-gGlu-gGlu-gGlu-gGlu-gGlu-eLys(1,2)]
0.09		0.22	1.04	H-Y[Aib]EGTFTSDYSI[Aib]LEKQAQ[Aib]AFVEWLIK([εLys-γGlu-γGlu-γGlu-γGlu-γGlu-γGlu-C20 diacid])GGPSSGISLRHYYNWLTRQRY-NH2 [Compound 94, Y-Aib-E-G-T-F-T-S-D-Y-S-I-Aib-L-E-K-Q-A-Q-Aib-A-F-V-E-W-L-I-K(1,3)-GGPSSGISLRHYYNWLTRQRY-NH2.C20DA-gGlu-gGlu-gGlu-gGlu-gGlu-gGlu-eLys(1,2)]
0.24		0.42		H-Y[Aib]EGTFTSDYSI[Aib]LEKQAQ[Aib]AFVEWLIK([εLys-γGlu-γGlu-γGlu-γGlu-γGlu-γGlu-C20 diacid])GGQSSGASLRHYYNWLTRQRY-NH2 [Compound 123, Y-Aib-E-G-T-F-T-S-D-Y-S-I-Aib-L-E-K-Q-A-Q-Aib-A-F-V-E-W-L-I-K(1,3)-GGQSSGASLRHYYNWLTRQRY-NH2.C20DA-gGlu-gGlu-gGlu-gGlu-gGlu-gGlu-eLys(1,2)]
0.14	3.86	0.46	1.23	H-Y[Aib]EGTFTSDYSI[Aib]LEKQAQ[Aib]AFVQWLIK([AEEA-AEEA-γGlu-γGlu-γGlu-γGlu-C20 diacid])GGPSEGASLRHYYNWLTRQRY-NH2 [Compound 269, Y-Aib-E-G-T-F-T-S-D-Y-S-I-Aib-L-E-K-Q-A-Q-Aib-A-F-V-Q-W-L-I-K(1,3)-GGPSEGASLRHYYNWLTRQRY-NH2.C20DA-gGlu-gGlu-gGlu-gGlu-OEG-OEG(1,2)]
0.12		0.23	1.52	H-Y[Aib]EGTFTSDYSI[Aib]LEKQAQ[Aib]AFVQWLIK([AEEA-AEEA-γGlu-γGlu-γGlu-γGlu-γGlu-C20 diacid])GGPSEGASLRHYYNWLTRQRY-NH2 [Compound 228, Y-Aib-E-G-T-F-T-S-D-Y-S-I-Aib-L-E-K-Q-A-Q-Aib-A-F-V-Q-W-L-I-K(1,3)-GGPSEGASLRHYYNWLTRQRY-NH2.C20DA-gGlu-gGlu-gGlu-gGlu-gGlu-OEG-OEG(1,2)]

Second part, the substance before the results:

Substance	EC50 [1, 3] [nM]	EC50 [1, 4] [nM]	EC50 [2, 5] [nM]	EC50 [2, 6] [nM]
H-Y[Aib]EGTFTSDYSI[Aib]LEKQAQ[Aib]AFVEWLIK([εLys-γGlu-γGlu-γGlu-γGlu-γGlu-γGlu-C20 diacid])GGPSSGASLRHYYNLLTRQRY-NH2 [Compound 195, Y-Aib-E-G-T-F-T-S-D-Y-S-I-Aib-L-E-K-Q-A-Q-Aib-A-F-V-E-W-L-I-K(1,3)-GGPSSGASLRHYYNLLTRQRY-NH2.C20DA-gGlu-gGlu-gGlu-gGlu-gGlu-gGlu-eLys(1,2)]	0.13		0.25	1.42
H-Y[Aib]EGTFTSDYSI[Aib]LEKQAQ[Aib]AFVEWLIK([εLys-γGlu-γGlu-γGlu-γGlu-γGlu-γGlu-C20 diacid])GGPSSGASLRHYYNW[Tle]TRQRY-NH2 [Compound 137, Y-Aib-E-G-T-F-T-S-D-Y-S-I-Aib-L-E-K-Q-A-Q-Aib-A-F-V-E-W-L-I-K(1,3)-G-G-P-S-S-G-A-S-L-R-H-Y-Y-N-W-Tle-T-R-Q-R-Y-NH2.C20DA-gGlu-gGlu-gGlu-gGlu-gGlu-gGlu-eLys(1,2)]	0.12		0.28	1.5
H-Y[Aib]EGTFTSDYSI[Aib]LEKQAQ[Aib]AFVEWLIK([εLys-γGlu-γGlu-γGlu-γGlu-γGlu-γGlu-C20 diacid])GGPSSGASLRHYYN[Aib]LTRQRY-NH2 [Compound 218, Y-Aib-E-G-T-F-T-S-D-Y-S-I-Aib-L-E-K-Q-A-Q-Aib-A-F-V-E-W-L-I-K(1,3)-G-G-P-S-S-G-A-S-L-R-H-Y-Y-N-Aib-L-T-R-Q-R-Y-NH2.C20DA-gGlu-gGlu-gGlu-gGlu-gGlu-gGlu-eLys(1,2)]	0.16		0.36	2.35
H-Y[Aib]EGTFTSDYSI[Aib]LEKQAQ[Aib]AFVEWLIK([εLys-γGlu-γGlu-γGlu-γGlu-γGlu-γGlu-C20 diacid])GGPSSGAS[Aib]RHYYNWLTRQ[NMeR]Y-NH2 [Compound 39, Y-Aib-E-G-T-F-T-S-D-Y-S-I-Aib-L-E-K-Q-A-Q-Aib-A-F-V-E-W-L-I-K(1,3)-G-G-P-S-S-G-A-S-Aib-R-H-Y-Y-N-W-L-T-R-Q-NMeR-Y-NH2.C20DA-gGlu-gGlu-gGlu-gGlu-gGlu-gGlu-eLys(1,2)]	0.09	0.82	0.06	0.4
H-Y[Aib]EGTFTSDYSI[Aib]LEKQAQ[Aib]AFVEWLIK([εLys-γGlu-γGlu-γGlu-γGlu-γGlu-γGlu-C20 diacid])GGPSSGAS[Aib]RHY[Aib]NR[Aib]TRQRY-NH2 [Compound 4, Y-Aib-E-G-T-F-T-S-D-Y-S-I-Aib-L-E-K-Q-A-Q-Aib-A-F-V-E-W-L-I-K(1,3)-G-G-P-S-S-G-A-S-Aib-R-H-Y-Aib-N-R-Aib-T-R-Q-R-Y-NH2.C20DA-gGlu-gGlu-gGlu-gGlu-gGlu-gGlu-eLys(1,2)]	0.09		0.25	1.66
H-Y[Aib]EGTFTSDYSI[Aib]LEKQAQ[Aib]AFVEYLIK([εLys-γGlu-γGlu-γGlu-γGlu-γGlu-γGlu-C20 diacid])GGPSSGASLRHYYNWLTRQRY-NH2 [Compound 135, Y-Aib-E-G-T-F-T-S-D-Y-S-I-Aib-L-E-K-Q-A-Q-Aib-A-F-V-E-Y-L-I-K(1,3)-GGPSSGASLRHYYNWLTRQRY-NH2.C20DA-gGlu-gGlu-gGlu-gGlu-gGlu-gGlu-eLys(1,2)]	0.24		0.11	1.07
H-Y[Aib]EGTFTSDYSI[Aib]LEKQAQ[Aib]AFVQWLIK([AEEA-AEEA-γGlu-γGlu-γGlu-γGlu-C18 diacid])GGPEEPASLRHYYNWLTRQRY-NH2 [Compound 57, Y-Aib-E-G-T-F-T-S-D-Y-S-I-Aib-L-E-K-Q-A-Q-Aib-A-F-V-Q-W-L-I-K(1,3)-GGPEEPASLRHYYNWLTRQRY-NH2.C18DA-gGlu-gGlu-gGlu-gGlu-OEG-OEG(1,2)]	0.14		0.18	1.17
H-Y[Aib]EGTFTSDYSI[Aib]LEKQAQ[Aib]AFVQWLIK([Ahx-γGlu-γGlu-γGlu-γGlu-γGlu-C18 diacid])GGPEEGASLRHYYNWLTRQRY-NH2 [Compound 162, Y-Aib-E-G-T-F-T-S-D-Y-S-I-Aib-L-E-K-Q-A-Q-Aib-A-F-V-Q-W-L-I-K(1,3)-GGPEEGASLRHYYNWLTRQRY-NH2.C18DA-gGlu-gGlu-gGlu-gGlu-gGlu-AHX(1,2)]	0.2		0.25	1.61
H-Y[Aib]EGTFTSDYSI[Aib]LEKQAQ[Aib]AFVQWLIK([γGlu-γGlu-γGlu-γGlu-C18 diacid])GGPSEGASLRHYYNWLTRQRY-NH2 [Compound 268, Y-Aib-E-G-T-F-T-S-D-Y-S-I-Aib-L-E-K-Q-A-Q-Aib-A-F-V-Q-W-L-I-K(1,3)-GGPSEGASLRHYYNWLTRQRY-NH2.C18DA-gGlu-gGlu-gGlu-gGlu(1,2)]	0.08		0.17	1.01
